In US11980616B2, “Treating liver disease by selectively eliminating senescent cells” (Buck Institute for Research on Aging, priority 2014, dated 2024):

Experiments:
[1] = test system: doxorubicin-treated (Doxo) senescent aortic endothelial cells (Endo Aort); assay: Cell count survival assay, doxorubicin-induced senescent aortic endothelial cells; type: cell-based; conditions: Sen(Doxo) aortic endothelial cells; 11 days
Description: (§1) Foreskin fibroblast cell lines HCA2 and BJ, lung fibroblast cell line IMR90, and mouse embryonic fibroblasts were seeded in six-well plates and induced to senesce with 10 Gy of ionizing radiation (IR) or a 24 hr treatment with doxorubicin (Doxo). Senescent phenotype was allowed to develop for at least 7 days, at which point a cell count was made to determine the baseline number of cells. Nutlin-3a treatment was then initiated for a period of at least 9 days. Media alone or media with drug as appropriate was refreshed at least every three days. At the end of the assay time period, cells are counted. Each condition was seeded in three plate wells and counted independently. Initial cell count serves as a control to determine the induction of senescence, as compared to the last day count without nutlin treatment. Initial non-senescent cell count serves as a proxy to determine Nutlin-3a toxicity.
Foreskin fibroblasts (HCA2) and aortic endothelial cells (Endo Aort) were treated with doxorubicin (250 nM) for one day (24 hours) to induce senescence (see FIG. 1). Eight days following doxorubicin treatment, Nutlin-3a treatment was initiated. HCA2 cells were exposed to Nutlin-3a for 9 days, and aortic endothelial cells were exposed to Nutlin-3a for 11 days. […] Percent survival was calculated as [cell count on the last day of Nutlin-3a treatment/initial cell count on first day of Nutlin-3a treatment].

[2] = test system: senescent mouse embryonic fibroblasts (MEF); assay: Cell count survival assay, irradiation-induced senescent MEF; type: cell-based; conditions: irradiated MEF; 0, 2.5, 10 μM for 9 days
Description: as §1
Foreskin fibroblast cell lines HCA2 and BJ, lung fibroblast cell line IMR90, and mouse embryonic fibroblasts were exposed to 10 Gy of ionizing radiation (IR) to induce senescence. […] Percent survival was calculated as [cell count on day 9 of Nutlin-3a treatment/initial cell count on first day of Nutlin-3a treatment].

[3] = test system: non-senescent foreskin fibroblasts (Non Sen HCA2); assay: Cell count toxicity assay, non-senescent HCA2; type: cell-based; conditions: 0, 2.5, 10 μM, 9 days
Description: as §1
Non-senescent foreskin fibroblasts (HCA2), lung fibroblasts (IMR90), and mouse embryonic fibroblasts (MEF) were treated with varying concentrations (0, 2.5 μM, and 10 μM) of Nutlin-3a for a period of 9 days to assess Nutlin-3a toxicity. Cell counts were taken at the start (NS start) and end of Nutlin-3a treatment. The difference between counts of cells not treated with Nutlin-3a on day 9 (NS 0) and cell counts determined at day zero (NS start) reflects the cell growth over the indicated time period. […]

[4] = test system: non-senescent pre-adipocytes (Non Sen Pread); assay: Cell count toxicity assay, non-senescent pre-adipocytes; type: cell-based; conditions: 0, 2.5, 10 μM, 11 days
Description: (§2) Non-senescent aortic endothelial (Endo Aort) cells and pre-adipocytes (Pread) were also treated with varying concentrations (0, 2.5 μM, and 10 μM) of Nutlin-3a for a period of 11 days to assess Nutlin-3a toxicity, as described above. Cell counts were taken at the start at Day 0 (NS start) and at the end of Nutlin-3a treatment (NS 0). The difference between counts of cells not treated with Nutlin-3a on day 11 (NS 0) and cell counts from NS start reflects the cell growth over the indicated time period. […] Decrease in apparent survival between NS 0 and NS 2.5 and between NS 0 and NS 10 reflects a decrease in cell growth.

[5] = test system: non-senescent aortic endothelial (Non Sen Endo Aort) cells; assay: Cell count toxicity assay, non-senescent aortic endothelial cells; type: cell-based; conditions: 0, 2.5, 10 μM, 11 days
Description: as §2

[6] = test system: 3MR mice exposed to bleomycin; assay: Bleomycin induced lung injury model; type: in vivo, mouse
Description: One animal model study assessed the effect of clearance of senescence cells in the transgenic mouse strain 3MR that has bleomycin induced lung injury. In the bleomycin injury model for idiopathic pulmonary fibrosis, mice develop lung fibrosis within 7-14 days after bleomycin treatment (see, e.g., Limjunyawong et al., 2014, Physiological Reports 2:e00249; Daniels et al., 2004, J. Clin. Invest. 114:1308-1316). Bleomycin was administered to anesthetized 6-8 week old 3MR mice by intratracheal aspiration (2.5 U/kg of bleomycin in 50 μl PBS) using a microsprayer syringe (Penn-Century, Inc.) as described in Daniels et al. (2004, J. Clin. Invest. 114:1308-1316). Control mice were administered saline. The day following bleomycin treatment, ganciclovir (GCV) (25 mg/kg in PBS) was administered. 3MR mice were treated via intraperitoneal injection with ganciclovir for 5 consecutive days, followed by 5 days of rest, followed by a second treatment cycle of 5 consecutive days. Untreated mice received an equal volume of vehicle. At 7, 14, and 21 days post-bleomycin treatment, lung function was assessed by monitoring oxygen saturation using the MouseSTAT PhysioSuite pulse oximeter (Kent Scientific). Animals were anesthetized with isoflurane (1.5%) and a toe clip was applied. Mice were monitored for 30 seconds and the average peripheral capillary oxygen saturation (SpO2) measurement over this duration was calculated. […] At 21 days post-bleomycin treatment, airway hyper-reactivity (AHR) of mice was examined. AHR of mice was measured by methacholine challenge while other parameters of lung function (airway mechanics, lung volume and lung compliance) were determined using a SCIREQ flexiVent ventilator. While under ketamine/xylazine anesthesia and subjected to cannulation of the trachea via a tracheostomy (19Fr blunt Luer cannula), airway resistance (elastance) and compliance of mice were assessed at baseline and in response to increasing concentrations of methacholine (0 to 50 mg/ml in PBS) delivered via nebulization (AeroNeb) as described in Aravamudan et al. (Am. J. Physiol. Lung Cell. Mol. Physiol. (2012) 303:L669-L681). Animals were maintained at 37° C., and while under muscle paralysis (pancuronium); airway function was measured by using the FlexiVent™ ventilator and lung mechanics system (SCIREQ, Montreal, Quebec, Canada), which was housed on Stabile 8. […] As shown in FIGS. 60B-C, bleomycin administration reduced static compliance and (dynamic) compliance in vehicle treated mice. […] Mice were euthanized by i.p injection of pentobarbital. Bronchoalveolar lavage (BAL) fluids and lungs is obtained and analyzed. Hydroxyproline content of lungs is measured as described in Christensen et al. (1999, Am. J. Pathol. 155:1773-1779), and quantitative histopathology is performed. RNA is extracted from lung tissue to measure senescence cell markers by qRT-PCR in treated and control mice.

[7] = bleomycin exposed mouse, not statistically significant, group size too small
[8] = 25 mg/kg i.p., 21 days post-bleomycin

Row | Structure (SMILES) | Percent survival [1] | Percent survival [2] | Proliferation (percent growth) [3] | Toxicity (cell number vs starting level) [3] | Proliferation (percent growth) [4] | Toxicity (cell number vs starting level) [4] | Proliferation (percent growth) [5] | Toxicity (cell number vs starting level) [5] | Lung compliance [6, 7] | Lung elastance [6, 7] | Peripheral capillary oxygen saturation (SpO2) ([6]; 25 mg/kg i.p., two cycles of 5 days, 7, 14, 21 days post-bleomycin) | Lung elastance [6, 8] | Static compliance and (dynamic) compliance [6, 8]
1 | COc1ccc(C2=N[C@@H](c3ccc(Cl)cc3)[C@@H](c3ccc(Cl)cc3)N2C(=O)N2CCNC(=O)C2)c(OC(C)C)c1 [Nutlin-3a] | sensitive | reduced cell survival | reduces proliferation | non-toxic | reduces proliferation | non-toxic | reduces proliferation | non-toxic | increased lung compliance | reduced lung elastance |  |  | 
2 | Nc1nc(O)c2ncn(COC(CO)CO)c2n1 [ganciclovir] |  |  |  |  |  |  |  |  |  |  | higher SpO2 levels | reduced lung elastance | improved compliance values significantly
